These are literature values, as cited in patent publication US20160303203A1, “COMPOSITIONS AND METHODS FOR THE TREATMENT OF WOUNDS” (priority 2013, published 2016).

The series has as its system diabetic ulcers. Conditions: patients with diabetic ulcers treated with phenytoin; control group 45 days.

With `O=C1NC(=O)C(c2ccccc2)(c2ccccc2)N1` [phenytoin, 5.5-diphenyl-2,4-imidazolidinedione], the mean healing time is 21 days.
